Where a chain is given by its changes, count along the chain named.
Assays:
[1] = target: T1, PYR1^DIAZI (Arabidopsis thaliana, UniProt O49686, A160V/E8G/F108Y/F159G/L87M/M158V/V81Y); test: Yeast transcriptional activation circuit Z4-PYR1/VP64-ΔN-HAB1, GFP reporter, PYR1^DIAZI; details: panel of six chemically similar organophosphates
[2] = target: T2, PYR1^DIAZI-M (Arabidopsis thaliana, UniProt O49686, A160V/E8G/F108Y/F159G/H60P/L87M/M158V/N90S/V81Y); test: ELISA-like plate assay, immobilized PYR1^DIAZI-M, biotinylated ΔN-HAB1^T+; assay type: binding; details: tested at 20 μM, ELISA-format
T2 construct: made in house
T2 sequence (O49686 with tags, fused parts or gaps E8G/H60P/V81Y/L87M/N90S/F108Y/M158V/F159G/A160V): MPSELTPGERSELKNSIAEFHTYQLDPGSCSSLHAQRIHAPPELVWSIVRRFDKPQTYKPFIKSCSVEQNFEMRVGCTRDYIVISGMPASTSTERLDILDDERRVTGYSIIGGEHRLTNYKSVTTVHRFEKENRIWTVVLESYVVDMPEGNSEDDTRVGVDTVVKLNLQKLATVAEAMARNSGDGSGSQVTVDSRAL

[3] = target: T3, PYR1^PIRI / HAB1 (Arabidopsis thaliana, UniProt O49686, A160T/E130G/F159T/K59R/N119S/S122Q/S92M/V174A); test: Ligand/receptor-mediated PP2C (HAB1 phosphatase) inhibition, PYR1^PIRI; assay type: biochemical; details: HAB1 inhibition and Y2H assays
T3 construct: made in house
T3 sequence (O49686 with tags, fused parts or gaps K59R/S92M/N119S/S122Q/E130G/F159T/A160T/V174A): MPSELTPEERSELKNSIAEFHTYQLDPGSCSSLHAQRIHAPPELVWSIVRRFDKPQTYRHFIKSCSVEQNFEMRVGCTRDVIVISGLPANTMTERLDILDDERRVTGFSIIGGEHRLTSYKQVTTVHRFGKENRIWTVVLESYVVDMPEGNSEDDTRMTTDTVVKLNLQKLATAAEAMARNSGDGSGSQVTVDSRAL

[4] = target: T4, PYR1^DIAZI / HAB1 (Arabidopsis thaliana, UniProt O49686, A160V/E8G/F108Y/F159G/L87M/M158V/V81Y); test: Ligand/receptor-mediated PP2C (HAB1 phosphatase) inhibition, PYR1^DIAZI; assay type: biochemical
T4 construct: made in house
T4 sequence (O49686 with tags, fused parts or gaps E8G/V81Y/L87M/F108Y/M158V/F159G/A160V): T2 sequence (O49686 with tags, fused parts or gaps E8G/H60P/V81Y/L87M/N90S/F108Y/M158V/F159G/A160V) with P60H, S90N

[5] = target: T1, PYR1^DIAZI; test: Split NanoLuc luciferase complementation in yeast, NLuc^N-PYR1^DIAZI/NLuc^C-HAB1; assay type: cell-based; parameters: >PYR1-DIAZI; expressed in transfected cells; host or cells: Saccharomyces cerevisiae BY4742

T1 sequence (Q9CAJ0 179-511): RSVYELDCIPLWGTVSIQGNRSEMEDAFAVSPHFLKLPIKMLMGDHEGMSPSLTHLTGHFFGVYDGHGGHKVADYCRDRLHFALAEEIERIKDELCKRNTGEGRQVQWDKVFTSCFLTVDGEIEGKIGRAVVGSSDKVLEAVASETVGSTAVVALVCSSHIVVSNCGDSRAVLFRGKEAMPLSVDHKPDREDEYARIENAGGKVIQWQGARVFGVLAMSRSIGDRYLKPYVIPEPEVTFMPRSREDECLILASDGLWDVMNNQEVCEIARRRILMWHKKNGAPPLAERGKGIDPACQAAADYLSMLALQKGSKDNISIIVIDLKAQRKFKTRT
T1 sequence (O49686 other isoform, or with tags, fused parts or gaps E8G/V81Y/L87M/F108Y/M158V/F159G/A160V): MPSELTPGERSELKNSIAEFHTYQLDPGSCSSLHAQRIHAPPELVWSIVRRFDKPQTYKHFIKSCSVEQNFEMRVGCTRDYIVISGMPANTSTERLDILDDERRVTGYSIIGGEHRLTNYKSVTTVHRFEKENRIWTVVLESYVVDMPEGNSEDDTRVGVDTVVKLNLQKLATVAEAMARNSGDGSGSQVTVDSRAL

SMILES: CCOP(=S)(OCC)Oc1cc(C)nc(C(C)C)n1 [Diazinon, diazinon]
- PYR1^DIAZI EC50 to on-target ligand relative to other organophosphates [1]: greater than tenfold lower than all other molecules profiled
- discrimination of on-target ligand from other organophosphates by PYR1^DIAZI [2]: good discrimination
- ligand concentrations required for activation of PYR1^PIRI above background [3]: high-nanomolar to low-micromolar
- EC50 [4]: 36 nM
- EC50 [5]: 24 nM
